Values quoted from earlier work, collected in patent US20080112910A1, “Cool feeling composition, cool feeling auxiliary composition, and use thereof” (priority 2002, published 2008).

Conditions: as compared with menthol

## COC(=O)c1ccccc1O [methyl salicylate]
  stimulation of cool feeling: very weak
  stimulation of hot feeling: strong
